pIC50: −log10 of the molar value.
target: SMYD2 (Homo sapiens (Human), UniProt Q9NRG4); assay: Scintillation Proximity Assay (SPA) for detection of SMYD2 enzymatic inhibition; format: biochemical; conditions: comparison example versus WO 2006/072350; read-out: IC50 [mol/l] (SPA Assay)
Method: 1.1 Scintillation Proximity Assay (SPA) for Detection of SMYD2 Enzymatic Inhibition
The SMYD2 full length enzyme was produced in-house by expression (with an N-terminal 6×His tag) in E. coli and purification by affinity chromatography on a Ni-NTA Sepharose column followed by a size exclusion chromatography step on a Superdex 200 16/60 column (GE Healthcare).
To this end, 100-fold concentrated compound solutions (in DMSO) were previously prepared by serial dilution (1:3.4) of 2 mM stocks in a clear low volume 384-well source microtiter plate (Greiner Bio-One), from which 50 nl of compound solutions were transferred into a white low volume test microtiter plate from the same supplier. […] The samples were then incubated for 15 min at 22° C. to allow pre-equilibration of the putative enzyme-inhibitor complexes before the start of the methylation reaction, which was initiated by the addition of 2.5 μl 2-fold concentrated solution (in assay buffer) of titrated S-Adenosyl-L-Methionine (3H-SAM, Perkin Elmer, final concentration: 60 nM) and p53 Peptide substrate (final concentration: 1.0 μM). The resulting mixture (5 μl final volume) was shortly centrifuged (2 min., 1500 rpm) and incubated at 22° C. during 30 min. Thereupon the reaction was stopped by adding 3 μl of Streptavidin PS SPA imaging beads (Perkin Elmer, final concentration of 3.12 μg/μl) and “cold” SAM (AK Scientific, 25 μM final concentration) for non-specific binding reduction. Plates containing the stopped reaction were sealed with transparent adhesive foil (Perkin Elmer), centrifuged (2 min., 1500 rpm), and further incubated for—at least—1 h at RT (or overnight at 4° C.) in order to allow the SPA signals to develop. […] IC50 values were calculated by fitting the normalized inhibition data to a 4-parameter logistic equation using the “Screener” analysis software from Genedata.

SMYD2, sequence (Q9NRG4 whole entry): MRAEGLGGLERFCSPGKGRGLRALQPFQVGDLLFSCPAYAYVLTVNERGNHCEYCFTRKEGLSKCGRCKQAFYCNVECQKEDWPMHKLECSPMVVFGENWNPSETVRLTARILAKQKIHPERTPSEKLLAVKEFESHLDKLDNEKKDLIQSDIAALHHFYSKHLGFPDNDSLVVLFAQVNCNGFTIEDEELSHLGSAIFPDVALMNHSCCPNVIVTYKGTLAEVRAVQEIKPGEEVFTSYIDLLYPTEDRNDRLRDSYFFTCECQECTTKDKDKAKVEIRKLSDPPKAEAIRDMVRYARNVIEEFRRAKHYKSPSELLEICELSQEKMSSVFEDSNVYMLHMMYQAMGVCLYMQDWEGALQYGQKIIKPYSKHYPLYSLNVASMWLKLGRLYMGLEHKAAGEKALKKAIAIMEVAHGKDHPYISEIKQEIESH

pIC50	Compound
6.26	CCN(C(=O)CO)C1CN(/C(=N\C#N)Nc2cccc(OC(F)F)c2)N=C1c1ccc(Cl)cc1 (stereo not drawn) [WO 2006/072350 Example 67 more active isomer, reference compound]

same assay, conditions: methylation of biotinylated p53 Peptide, 3H-SAM, full length SMYD2; read-out: IC50 [mol/l] (SPA Assay)

pIC50	Compound
7.08	CN(C(=O)CO)C1CN(/C(=N\C#N)Nc2cccc(OC(F)F)c2)N=C1c1ccc(Cl)c(Cl)c1 (racemic) [Example 2, Rac-N-[1-{N′-cyano-N-[3-(difluoromethoxy)phenyl]carbamimidoyl}-3-(3,4-dichlorophenyl)-4,5-dihydro-1H-pyrazol-4-yl]-2-hydroxy-N-methylacetamide]
6.29	C[C@H](O)C(=O)NC1CN(/C(=N\C#N)Nc2cccc(OC(F)F)c2)N=C1c1ccc(Cl)c(Cl)c1 (mixture of isomers) [Example 1, (2S)—N-[1-{N′-cyano-N-[3-(difluoromethoxy)phenyl]carbamimidoyl}-3-(3,4-dichlorophenyl)-4,5-dihydro-1H-pyrazol-4-yl]-2-hydroxypropanamide]
5.60	CCN(C(=O)CO)C1CN(/C(=N\C#N)Nc2cc(F)cc(OC(F)F)c2)N=C1c1ccc(Cl)c(Cl)c1 (single isomer, unassigned) [Example 24.1, N-[1-{N′-cyano-N-[3-(difluoromethoxy)-5-fluorophenyl]carbamimidoyl}-3-(3,4-dichlorophenyl)-4,5-dihydro-1H-pyrazol-4-yl]-N-ethyl-2-hydroxyacetamide]
7.19	CCN(C(=O)CO)C1CN(/C(=N\C#N)Nc2ccc(F)c(OC(F)F)c2)N=C1c1ccc(Cl)c(Cl)c1 (racemic) [Example 22, Rac-N-[1-{N′-cyano-N-[3-(difluoromethoxy)-4-fluorophenyl]carbamimidoyl}-3-(3,4-dichlorophenyl)-4,5-dihydro-1H-pyrazol-4-yl]-N-ethyl-2-hydroxyacetamide]
7.17	CCN(C(=O)CO)C1CN(/C(=N\C#N)Nc2cccc(OC(F)F)c2F)N=C1c1ccc(Cl)c(Cl)c1 (racemic) [Example 23, Rac-N-[1-{N′-cyano-N-[3-(difluoromethoxy)-2-fluorophenyl]carbamimidoyl}-3-(3,4-dichlorophenyl)-4,5-dihydro-1H-pyrazol-4-yl]-N-ethyl-2-hydroxyacetamide]
7.51	CCN(C(=O)CO)C1CN(/C(=N\C#N)Nc2cc(OC(F)(F)F)ccc2OC)N=C1c1ccc(Cl)c(Cl)c1 (racemic) [Example 26, Rac-N-[1-{N′-cyano-N-[2-methoxy-5-(trifluoromethoxy)phenyl]carbamimidoyl}-3-(3,4-dichlorophenyl)-4,5-dihydro-1H-pyrazol-4-yl]-N-ethyl-2-hydroxyacetamide]
7.80	CCN(C(=O)CO)C1CN(/C(=N\C#N)Nc2cc(C(F)(F)F)ccc2OCCN2CCCC2)N=C1c1ccc(Cl)c(Cl)c1 (racemic) [Example 30, Rac-N-[r-(N′-cyano-N-[2-[2-(pyrrolidin-1-yl)ethoxy]-5-(trifluormethyl)phenyl]carbamimidoyl)-3-(3,4-dichlorophenyl)-4,5-dihydro-1H-pyrazol-4-yl]-N-ethyl-2-hydroxyacetamide]
7.20	CCN(C(=O)CO)C1CN(/C(=N\C#N)Nc2cc(F)cc(OC(F)F)c2)N=C1c1ccc(Cl)c(Cl)c1 (racemic) [Example 24, Rac-N-[1-{N′-cyano-N-[3-(difluoromethoxy)-5-fluorophenyl]carbamimidoyl}-3-(3,4-dichlorophenyl)-4,5-dihydro-1H-pyrazol-4-yl]-N-ethyl-2-hydroxyacetamide]
7.72	CCN(C(=O)CO)C1CN(/C(=N\C#N)Nc2cc(F)cc(OC(F)F)c2)N=C1c1ccc(Cl)c(Cl)c1 (single isomer, unassigned) [Example 24.2, N-[1-{N′-cyano-N-[3-(difluoromethoxy)-5-fluorophenyl]carbamimidoyl}-3-(3,4-dichlorophenyl)-4,5-dihydro-1H-pyrazol-4-yl]-N-ethyl-2-hydroxyacetamide]
6.31	CCN(C(=O)[C@H](C)N)C1CN(/C(=N\C#N)Nc2cccc(OC(F)F)c2)N=C1c1ccc(Cl)c(C)c1 (single isomer, unassigned) [Example 34.2, N-[3-(4-chloro-3-methylphenyl)-1-{N′-cyano-N-[3-(difluoromethoxy)phenyl]carbamimidoyl}-4,5-dihydro-1H-pyrazol-4-yl]-N-ethyl-L-alaninamide]
7.27	CCN(C(=O)CO)C1CN(/C(=N\C#N)Nc2cccc(OC(F)(F)F)c2F)N=C1c1ccc(Cl)c(Cl)c1 (single isomer, unassigned) [Example 12.2, N-[1-{N′-cyano-N-[2-fluoro-3-(trifluoromethoxy)phenyl]carbamimidoyl}-3-(3,4-dichlorophenyl)-4,5-dihydro-1H-pyrazol-4-yl]-N-ethyl-2-hydroxyacetamide]
6.85	CCN(C(=O)CO)C1CN(/C(=N\C#N)Nc2cc(C(F)(F)F)ccc2OC(F)(F)F)N=C1c1ccc(Cl)c(Cl)c1 (racemic) [Example 28, Rac-N-[1-{N′-cyano-N-[2-(trifluoromethoxy)-5-(trifluoromethyl)phenyl]carbamimidoyl}-3-(3,4-dichlorophenyl)-4,5-dihydro-1H-pyrazol-4-yl]-N-ethyl-2-hydroxyacetamide]
7.36	CCN(C(=O)CO)C1CN(/C(=N\C#N)Nc2ccc(Cl)c(OC(F)F)c2)N=C1c1ccc(Cl)c(Cl)c1 (single isomer, unassigned) [Example 11.1, N-[1-{N-[4-chloro-3-(difluoromethoxy)phenyl]-N′-cyanocarbamimidoyl}-3-(3,4-dichlorophenyl)-4,5-dihydro-1H-pyrazol-4-yl]-N-ethyl-2-hydroxyacetamide]
4.81	CCN(C(=O)[C@H](C)N)C1CN(/C(=N\C#N)Nc2cccc(OC(F)F)c2)N=C1c1ccc(Cl)c(C)c1 (single isomer, unassigned) [Example 34.1, N-[3-(4-chloro-3-methylphenyl)-1-{N′-cyano-N-[3-(difluoromethoxy)phenyl]carbamimidoyl}-4,5-dihydro-1H-pyrazol-4-yl]-N-ethyl-L-alaninamide]
5.58	CCN(C(=O)CO)C1CN(/C(=N\C#N)Nc2cccc(OC(F)(F)F)c2F)N=C1c1ccc(Cl)c(Cl)c1 (single isomer, unassigned) [Example 12.1, N-[1-{N′-cyano-N-[2-fluoro-3-(trifluoromethoxy)phenyl]carbamimidoyl}-3-(3,4-dichlorophenyl)-4,5-dihydro-1H-pyrazol-4-yl]-N-ethyl-2-hydroxyacetamide]
5.62	CCN(C(=O)[C@H](N)CC(C)C)C1CN(/C(=N\C#N)Nc2cccc(OC(F)(F)F)c2)N=C1c1ccc(Cl)c(Cl)c1 (stereo partly drawn) [Example 39, N-[1-{N′-cyano-N-[3-(trifluoromethoxy)phenyl]carbamimidoyl}-3-(3,4-dichlorophenyl)-4,5-dihydro-1H-pyrazol-4-yl]-N-ethyl-D-leucinamide]
6.83	CCN(C(=O)CO)C1CN(/C(=N\C#N)Nc2ccc(F)c(OC(F)(F)F)c2)N=C1c1ccc(Cl)c(Cl)c1 (racemic) [Example 14, Rac-N-[1-{N′-cyano-N-[4-fluoro-3-(trifluoromethoxy)phenyl]carbamimidoyl}-3-(3,4-dichlorophenyl)-4,5-dihydro-1H-pyrazol-4-yl]-N-ethyl-2-hydroxyacetamide]
6.86	CCN(C(=O)CO)C1CN(/C(=N\C#N)Nc2cccc(OC(F)(F)F)c2F)N=C1c1ccc(Cl)c(Cl)c1 (racemic) [Example 12, Rac-N-[1-{N′-cyano-N-[2-fluoro-3-(trifluoromethoxy)phenyl]carbamimidoyl}-3-(3,4-dichlorophenyl)-4,5-dihydro-1H-pyrazol-4-yl]-N-ethyl-2-hydroxyacetamide]
7.13	CCN(C(=O)[C@H](N)C(C)C)C1CN(/C(=N\C#N)Nc2cccc(OC(F)F)c2)N=C1c1ccc(Cl)c(Cl)c1 (stereo partly drawn) [Example 41, N-[1-{N′-Cyano-N-[3-(difluoromethoxy)phenyl]carbamimidoyl}-3-(3,4-dichlorophenyl)-4,5-dihydro-1H-pyrazol-4-yl]-N-ethyl-D-valinamide]
6.80	CCN(C(=O)CO)C1CN(/C(=N\C#N)Nc2cccc(OC(F)(F)F)c2)N=C1c1ccc(Cl)c(F)c1 (racemic) [Example 35, Rac-N-[3-(4-chloro-3-fluorophenyl)-1-{N′-cyano-N-[3-(trifluoromethoxy)phenyl]-carbamimidoyl}-4,5-dihydro-1H-pyrazol-4-yl]-N-ethyl-2-hydroxyacetamide]
5.53	CCN(C(=O)CO)C1CN(/C(=N\C#N)Nc2ccc(Cl)c(OC(F)F)c2)N=C1c1ccc(Cl)c(Cl)c1 (single isomer, unassigned) [Example 11.2, N-[1-{N-[4-chloro-3-(difluoromethoxy)phenyl]-N′-cyanocarbamimidoyl}-3-(3,4-dichlorophenyl)-4,5-dihydro-1H-pyrazol-4-yl]-N-ethyl-2-hydroxyacetamide]

— patent US10023539B2, “Aryl-cyanoguanidine compounds” (Bayer Pharma Aktiengesellschaft, priority 2014, dated 2018)
